Assay results from patent US20250230138A1, “COMPOUNDS HAVING A T-STRUCTURE FORMED BY AT LEAST FOUR CYCLES FOR USE IN THE TREATMENT OF CANCER AND OTHER INDICATIONS” (TheRas, Inc., priority 2022, published 2025).
Where two headings read alike, the source gives them in different places.

How the values were obtained:
[1] = molecular target: Cys242 in human PIK3CA (157-299) (Homo sapiens (Human), UniProt P42336); assay: Covalent modification assay using MALDI-TOF MS; assay type: biochemical; conditions: 4 h reaction time point
Sequence of Cys242 in human PIK3CA (157-299) (P42336 157-299): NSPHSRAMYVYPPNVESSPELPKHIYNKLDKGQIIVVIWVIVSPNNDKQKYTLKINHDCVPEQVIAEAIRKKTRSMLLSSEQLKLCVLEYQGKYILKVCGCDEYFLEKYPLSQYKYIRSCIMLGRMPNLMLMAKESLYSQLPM
Outline: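 Covalent adduct formation was read by linear-mode MALDI-TOF with sinapinic acid matrix, reported as modified-protein peak height divided by total protein peak heights. Reactions held PIK3CA (157-299) at 1 or 3.33 μM in HEPES/NaCl/MgCl2 buffer, pH 7.3, sampled after 15 min to 4 h at room temperature.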

[2] = tested on: pAKT in BT474 cells; assay: Cell-based pAKT HTRF assay in BT474 cells; conditions: BT474 cells, 4 hr incubation, read-out: pAKT inhibition IC50 in BT474 cells
Outline: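 Treatment lasts 4 hr in DMEM/10% FBS at 0.25% DMSO over nine 3-fold dilutions from 3 μM. The lysate is then probed by HTRF.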

[3] = 3.33 μM protein target, 1:7.5 protein to compound ratio (compounds 1-852)
[4] = Homo sapiens, BT-474, Compounds 10-999
[5] = 1 μM protein target, 1:5 protein to compound ratio (compounds 853-1279)

| SMILES | % of modification [1, 3] | IC50 ([2]; Compounds 10-999) | IC50 [2, 4] | % of modification [1, 5] | IC50 ([2]; Compounds 1000-1279) |
| --- | --- | --- | --- | --- | --- |
| C=CC(=O)N1Cc2cc(-c3nc(-c4ccc5nc(C)oc5c4)c4ccsc4c3-c3c(F)cc(F)cc3OCCOC)nn2CC1C (stereo not shown) [Compound 497] | A (percent of modification of PIK3CA protein ≥75%) | < 100 nM | – | – | – |
| C=CC(=O)N1Cc2cc(-c3nc(-c4ccc5c(c4)CCN(C)C5)c4ccsc4c3-c3c(F)cc(F)cc3OC(C)C)nn2C[C@H]1C [Compound 478, 1-((R)-2-((R)-7-(2,4-difluoro-6-isopropoxyphenyl)-4-(2-methyl-1,2,3,4-tetrahydroisoquinolin-6-yl)thieno[3,2-c]pyridin-6-yl)-6-methyl-6,7-dihydropyrazolo[1,5-a]pyrazin-5(4H)-yl)prop-2-en-1-one] | D (percent of modification <25%) | 100 to 1000 nM | – | – | – |
| C=CC(=O)N1CCc2nc(-c3nc(-c4cnc5c(c4)CN(C)CC5)c4ccsc4c3-c3c(F)cc(F)cc3OCCOC)sc2C1 [Compound 365] | A (percent of modification of PIK3CA protein ≥75%) | < 100 nM | – | – | – |
| C=CC(=O)N1CCc2nc(-c3nc(-c4ccc5c(c4)CCNC5)c4c(c3-c3ccc(F)cc3OC)CCC4)sc2C1 [Compound 96, 1-[2-[4-(4-fluoro-2-methoxy-phenyl)-1-(1,2,3,4-tetrahydroisoquinolin-6-yl)-6,7-dihydro-5H-cyclopenta[c]pyridin-3-yl]-6,7-dihydro-4H-thiazolo[5,4-c]pyridin-5-yl]prop-2-en-1-one] | A (percent of modification of PIK3CA protein ≥75%) | – | 100 to 1000 nM | – | – |
| C=CC(=O)N1CCn2nc(-c3nc(-c4cnnc(N5CCN(C)CC5)c4)c4ccsc4c3-c3c(F)cc(F)cc3OCCOC)cc2C1C (stereo not shown) [Compound 1045] | – | – | – | A (percent of modification of PIK3CA protein ≥75%) | < 100 nM |
| C=CC(=O)N1CCn2nc(-c3nc(-c4ccc(N(C)C)nc4)c4ccsc4c3-c3c(F)cc(F)cc3OCCO)cc2[C@@H]1C [Compound 957, 1-((S)-2-((S)-7-(2,4-difluoro-6-(2-hydroxyethoxy)phenyl)-4-(6-(dimethylamino)pyridin-3-yl)thieno[3,2-c]pyridin-6-yl)-4-methyl-6,7-dihydropyrazolo[1,5-a]pyrazin-5(4H)-yl)prop-2-en-1-one] | – | – | < 100 nM | A (percent of modification of PIK3CA protein ≥75%) | – |
| C=CC(=O)N1CCc2nc(-c3nc(-c4ccc5c(c4)CCNC5)c4ccsc4c3-c3ccc(F)cc3OC)sc2C1 [Compound 87, 1-[2-[7-(4-fluoro-2-methoxy-phenyl)-4-(1,2,3,4-tetrahydroisoquinolin-6-yl)thieno[3,2-c]pyridin-6-yl]-6,7-dihydro-4H-thiazolo[5,4-c]pyridin-5-yl]prop-2-en-1-one] | A (percent of modification of PIK3CA protein ≥75%) | – | 100 to 1000 nM | – | – |
| C=CC(=O)N1CC[C@@H](n2ccc(-c3nc(-c4cnn(C)c4)c4ccsc4c3-c3ccc(F)cc3OC(C)C)n2)C1 [Compound 329] | A (percent of modification of PIK3CA protein ≥75%) | 100 to 1000 nM | – | – | – |
| C=CC(=O)N1CCc2ccc(-c3nc(-c4cnc5c(c4)CNC(=O)C5)c4ccsc4c3-c3c(F)cc(F)cc3OC(C)C)cc2C1 [Compound 499] | A (percent of modification of PIK3CA protein ≥75%) | < 100 nM | – | – | – |
| C=CC(=O)N1CCc2ncc(-c3nc(-c4cncc(F)c4)c4ccsc4c3-c3c(F)cc(F)cc3OC(C)C)cc2C1 [Compound 406] | A (percent of modification of PIK3CA protein ≥75%) | < 100 nM | – | – | – |
| C=CC(=O)N1CCn2nc(-c3nc(-c4cncc(C#N)c4)c4ccsc4c3-c3ccc(F)cc3OC(C)C)cc2C1 [Compound 259] | A (percent of modification of PIK3CA protein ≥75%) | < 100 nM | – | – | – |
| C=CC(=O)N1Cc2cc(-c3nc(-c4ccc5c(c4)CCN(C)C5)c4ccsc4c3-c3c(F)cc(F)cc3OC[C@@H](C)O)nn2C[C@H]1C [Compound 606] | D (percent of modification <25%) | 1000 to 3000 nM | – | – | – |
| C=CC(=O)N1CCc2nc(-c3nc(-c4ccc5c(c4)CNC5=O)c4ccsc4c3-c3c(F)cc(F)cc3OC(C)C)sc2C1 [Compound 311, 5-[7-(2,4-difluoro-6-isopropoxy-phenyl)-6-(5-prop-2-enoyl-6,7-dihydro-4H-thiazolo[5,4-c]pyridin-2-yl)thieno[3,2-c]pyridin-4-yl]isoindolin-1-one] | A (percent of modification of PIK3CA protein ≥75%) | – | < 100 nM | – | – |
| C=CC(=O)N1Cc2cc(-c3nc(-c4ncn(C)n4)c4ccsc4c3-c3c(F)cc(F)cc3OCCOC)nn2CC1C (stereo not shown) [Compound 851] | A (percent of modification of PIK3CA protein ≥75%) | < 100 nM | – | – | – |
| C=CC(=O)N1CCc2nc(-c3nc(-c4ncn(C)n4)c4ccsc4c3-c3c(F)cc(F)cc3OC(C)C)sc2C1 [Compound 390] | A (percent of modification of PIK3CA protein ≥75%) | < 100 nM | – | – | – |
| C=CC(=O)N1CCn2nc(-c3nc(-c4ccnc(N)c4)c4ccsc4c3-c3ccc(F)cc3OCCO)nc2C1 [Compound 197] | A (percent of modification of PIK3CA protein ≥75%) | < 100 nM | – | – | – |

| SMILES | % of modification [1, 3] | IC50 ([2]; Compounds 10-999) | IC50 [2, 4] | % of modification [1, 5] | IC50 ([2]; Compounds 1000-1279) |
| --- | --- | --- | --- | --- | --- |
| C=CC(=O)N1CCn2nc(-c3nc(-c4cnn(C(F)F)c4)c4ccsc4c3-c3ccc(F)cc3OCCOC)cc2C1 [Compound 245] | A (percent of modification of PIK3CA protein ≥75%) | < 100 nM | – | – | – |
| C=CC(=O)N1CC[C@H](n2cc(-c3nc(-c4ccc5c(c4)CNC5=O)c4ccsc4c3-c3ccc(F)cc3OC(C)C)cn2)C1 [Compound 328] | A (percent of modification of PIK3CA protein ≥75%) | < 100 nM | – | – | – |
| C=CC(=O)N1CCn2nc(-c3nc(-c4ccc5c(cnn5C)c4)c4ccsc4c3-c3c(F)cc(F)cc3OCCOC)cc2[C@H]1C [Compound 758, 1-((R)-2-((S)-7-(2,4-difluoro-6-(2-methoxyethoxy)phenyl)-4-(1-methyl-1H-indazol-5-yl)thieno[3,2-c]pyridin-6-yl)-4-methyl-6,7-dihydropyrazolo[1,5-a]pyrazin-5(4H)-yl)prop-2-en-1-one] | A (percent of modification of PIK3CA protein ≥75%) | < 100 nM | – | – | – |
| C=CC(=O)N1Cc2cc(-c3nc(-c4cn(C)cn4)c4ccsc4c3-c3c(F)cc(F)cc3OC[C@@H](C)O)nn2C[C@H]1C [Compound 745] | A (percent of modification of PIK3CA protein ≥75%) | < 100 nM | – | – | – |
| C=CC(=O)N1CCc2ncc(-c3nc(-c4ccc5nn(C)cc5c4)c4ccsc4c3-c3c(F)cc(F)cc3OCCOC)cc2C1 [Compound 400] | A (percent of modification of PIK3CA protein ≥75%) | < 100 nM | – | – | – |
| C=CC(=O)N1CCc2nc(-c3nc(-c4ccc5c(c4)CCNC5)c4ccsc4c3-c3c(F)cc(F)cc3OCC)sc2C1 [Compound 430] | A (percent of modification of PIK3CA protein ≥75%) | 100 to 1000 nM | – | – | – |
| C=CC(=O)N1CCc2nc(-c3nc(N4CCN(S(C)(=O)=O)CC4)c4ccsc4c3-c3ccc(F)cc3OCCOC)sc2C1 [Compound 167] | B (50%<percent of modification <75%) | 100 to 1000 nM | – | – | – |
| C=CC(=O)N1CCn2nc(-c3nc(-c4ccc5c(cnn5C)c4)c4ccsc4c3-c3c(F)cc(F)cc3OC)cc2C1C (stereo not shown) [Compound 1115] | – | – | – | A (percent of modification of PIK3CA protein ≥75%) | < 100 nM |
| C=CC(=O)N1CCc2cc(-c3nc(-c4ccc5c(c4)CCNC5=O)c4ccsc4c3-c3c(F)cc(F)cc3OCCO)nn2CC1 [Compound 1202] | – | – | – | A (percent of modification of PIK3CA protein ≥75%) | < 100 nM |
| C=CC(=O)N1CC(n2cc(-c3nc(N4CC5(CCNCC5)CC4=O)c4ccsc4c3-c3ccc(F)cc3OCCOC)cn2)C1 [Compound 106] | C (25%≤percent of modification <50%) | > 3000 nM | – | – | – |
| C=CC(=O)N1CCn2nc(-c3nc(-c4ccc5c(c4)C4(CC4)CN(C)C5)c4ccsc4c3-c3c(F)cc(F)cc3OCCO)cc2C1C (stereo not shown) [Compound 1197] | – | – | – | A (percent of modification of PIK3CA protein ≥75%) | < 100 nM |
| C=CC(=O)N1CCn2nc(-c3cc(-c4cnn(C)c4)cnc3-c3ccc(F)cc3OCCOC)cc2C1 [Compound 281, 1-[2-[2-[4-fluoro-2-(2-methoxyethoxy)phenyl]-5-(1-methylpyrazol-4-yl)-3-pyridyl]-6,7-dihydro-4H-pyrazolo[1,5-a]pyrazin-5-yl]prop-2-en-1-one] | C (25%≤percent of modification <50%) | – | > 3000 nM | – | – |
| C=CC(=O)N1CCn2nc(-c3nc(-c4ccc5cn(C)nc5c4)c4ccsc4c3-c3c(F)cc(F)cc3OCCOC)cc2C1C (stereo not shown) [Compound 766] | A (percent of modification of PIK3CA protein ≥75%) | < 100 nM | – | – | – |
| C=CC(=O)N1CCc2nc(-c3nc(-c4ccc(C(C)(C)O)cc4)c4ccsc4c3-c3c(F)cc(F)cc3OCCOC)sc2C1 [Compound 419] | A (percent of modification of PIK3CA protein ≥75%) | 100 to 1000 nM | – | – | – |
| C=CC(=O)N1CC(n2cc(-c3nc(N4CCC5(CC4)CNC(=O)C5)c4ccsc4c3-c3ccc(F)cc3OCCOC)cn2)C1 [Compound 150] | A (percent of modification of PIK3CA protein ≥75%) | 100 to 1000 nM | – | – | – |
| C=CC(=O)N1CCc2ccc(-c3nc(-c4ccc5c(c4)CNC5=O)c4ccsc4c3-c3c(F)cc(F)cc3OCCOC)cc2C1 (single isomer, unassigned) [Compound 886] | – | > 3000 nM | – | D (percent of modification <25%) | – |
